Target: T1, ggTas2r2 (Gallus gallus, UniProt A0A1D5PXM6)
T1 construct: gene LOC101747503; transient expression in HEK 293T stably expressing Galpha16gust44; printed residues Gly85, Trp88, Asn92, Tyr180, Leu184, Tyr243, Ser246, Gln250
T1 sequence (A0A1D5PXM6 1-311): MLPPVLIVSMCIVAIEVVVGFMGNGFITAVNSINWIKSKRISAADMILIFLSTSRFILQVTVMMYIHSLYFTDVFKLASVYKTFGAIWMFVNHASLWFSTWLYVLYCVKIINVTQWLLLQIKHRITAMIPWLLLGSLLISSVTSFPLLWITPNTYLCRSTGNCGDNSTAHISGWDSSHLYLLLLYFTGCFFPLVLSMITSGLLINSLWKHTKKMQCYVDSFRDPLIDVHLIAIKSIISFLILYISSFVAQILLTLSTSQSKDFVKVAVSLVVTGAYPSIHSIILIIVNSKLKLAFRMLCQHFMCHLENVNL
Test: calcium mobilization, Fluo4-AM, FLIPR, dose-response
Format: cell-based
Conditions: agonist; HEK 293T with Galpha16gust44; 2.5 mM probenecid at loading

Structure (SMILES) | calcium mobilization, Fluo4-AM, FLIPR, dose-response
C=C[C@H]1CN2CC[C@H]1C[C@@H]2[C@H](O)c1ccnc2ccc(OC)cc12 [epiquinidine] | Epiquinidine and ethylhydrocupreine can still activate ggTas2r2 and ggTas2r7
CCOc1ccc2nccc([C@@H](O)[C@@H]3C[C@@H]4CCN3C[C@@H]4CC)c2c1 [ethylhydrocupreine] | Epiquinidine and ethylhydrocupreine can still activate ggTas2r2 and ggTas2r7
